From patent publication US7834242B2, “S-adenosyl-L-methionine synthetase promoter and its use in expression of transgenic genes in plants” (E. I. du Pont de Nemours and Company, priority 2003, dated 2010)

Tests used:
soybean plants = assay: Spray test for tolerance to SU herbicide; type: in vivo; conditions: 60 grams active ingredient per hectare
Experimental: Soybean plants, transformed with either pZSL13 or pZSL14, were tested for tolerance to SU herbicide. A spray solution was made containing 60 grams of Thifensulfuron-methyl active ingredient per hectare and 0.25% wt/wt of AL-2999 nonionic surfactant. Thifensulfuron-methyl has the chemical name, methyl 3-[[[[(4-methoxy-6-methyl-1,3,5-triazin-2-yl)amino]carbonyl]amino]sulfonyl]-2-thiophenecarboxylate, and is the active ingredient in the two DuPont sulfonylurea herbicides, HARMONY GT® and PINNACLE®. Either HARMONY GT® or PINNACLE® can be used as the source of this sulfonylurea for the spray test. AL-2999 is a nonionic surfactant, obtainable as ATPLUS UCL 1007® from Uniqema. This mixture was evenly sprayed onto the soybean plants at the 1st or 2nd trifoliate stage of development. After waiting approximately two weeks the results were scored. All wild-type plants (or plants lacking the SAMS:herbicide-resistant ALS transgene) were dead (negative control), all plants from commercially available STS® (Sulfonylurea Tolerant Soybean) seeds were alive (positive control), and plants containing the SAMS:herbicide-resistant ALS transgene from either pZSL13 or pZSL14 also survived. Consequently, either the 1.3-kb (SEQ ID NO:6) or the 2.1-kb (SEQ ID NO:14) fragment from the SAMS gene can drive expression of the mutant ALS gene at levels sufficient to provide tolerance to SU.

Arabidopsis seeds = system: Arabidopsis seeds
Experimental: (§1) To see if SAMS promoter is regulated by external methionine, the SAMS::GUS transgenic Arabidopsis seeds were germinated in the presence of either H2O, 1× Murashige and Skoog salt (GIBCO BRL), 0.01 mM methionine (Sigma), or 1 mM methionine. Ten days old seedlings from ten independent transgenic lines were analyzed for GUS activity according to the protocol described in Example 5.

SAMS promoter = assay: Induction of SAMS promoter activity by methionine (GUS activity of SAMS::GUS seedlings); type: in vivo, Arabidopsis
Experimental: as §1

[1] = system: transgenic Arabidopsis plants; assay: Fluorometric GUS assay of SAMS::GUS transgenic plants; type: in vivo, Arabidopsis thaliana; conditions: developing seeds of SAMS::GUS Arabidopsis
Experimental: FIG. 5 depicts a fluorometric GUS expression assay of transgenic Arabidopsis plants harboring the SAMS::GUS expression cassette. Triple samples of flowers, leaves, stems, siliques coats, young seeds, medium seeds, old seeds, and dry seeds collected from SAMS::GUS transgenic Arabidopsis plants were assayed for GUS activity. The graph was generated by Microsoft Excel and the standard deviation is indicated by the upper part of each column.
The activity of the soybean SAMS promoter was tested by its ability to express the GUS reporter gene in transgenic Arabidopsis plants carrying the SAMS promoter::GUS::3′ Nos expression casstette. […]
The GUS activities of the transgenic Arabidopsis plants were further analyzed by a fluorometric assay. For fluorescence analysis, plant tissues were ground in microfuge tubes with extraction buffer, 50 mM phosphate buffer, pH 7.0, 10 mM EDTA, 0.1% Triton X-100, 0.1% N-lauroyl sarcosine, and 10 mM β-mercaptoethanol, to homogeneity. The samples were centrifuged at 14,000 rpm for 10 minutes, and aliquots of the supernatant were used to determine protein concentrations by the Bradford method (Bio-Rad, Hercules, Calif.) using 96 well microtiter plates read with a kinetic microplate reader (Molecular Devices, Sunnyvale, Calif.). […] Data were entered into a Microsoft Excel spread sheet and analyzed. […]

COC(=O)c1sccc1S(=O)(=O)NC(=O)Nc1nc(C)nc(OC)n1 [Thifensulfuron-methyl, methyl 3-[[[[(4-methoxy-6-methyl-1,3,5-triazin-2-yl)amino]carbonyl]amino]sulfonyl]-2-thiophenecarboxylate]
Plant survival after spray (soybean plants; plants containing SAMS:herbicide-resistant ALS transgene from pZSL13 or pZSL14, approximately two weeks): survived | Plant survival after spray (soybean plants; plants from commercially available STS seeds, approximately two weeks): alive | Plant survival after spray (soybean plants; wild-type plants (lacking transgene), 0.25% AL-2999, scored after approximately two weeks): dead

CSCC[C@H](N)C(=O)O [methionine]
Toxic effect on seedlings (Arabidopsis seeds; 1 mM methionine): smaller sizes and shorter roots of the seedlings | Toxic effect on germination and survival (Arabidopsis seeds; 10 mM free methionine): only a few Arabidopsis seeds were able to germinate and none survived | SAMS activity induced (GUS activity) compared to H2O treatment (SAMS promoter; 0.01 mM free methionine, ten days old seedlings, ten transgenic lines): more than two-fold | Induction effect of SAMS promoter (SAMS promoter; 1 mM methionine): less than that by 0.01 mM methionine

B1: SAMS promoter: soybean S-adenosyl-L-methionine synthetase promoter fragment, 1314 bp, SEQ ID NO:6 (nucleic acid)
DNA: TCTAGATCAAACTCACATCCAAACATAACATGGATATCTCCTTACCAATCATACTAATTATTTTGGGTTAAATATTAATCATTATTTTTAAGATATTAATTAAGAAATTAAAAGATTTTTTAAAAAAATGTATAAAATTATATTATTCATGATTTTTCATACATTTGATTTTGATAATAAATATATTTTTTTTAATTTCTTAAAAAATGTTGCAAGACACTTATTAGACATAGTCTTGTTCTGTTTACAAAAGCATTCATCATTTAATACATTAAAAAATATTTAATACTAACAGTAGAATCTTCTTGTGAGTGGTGTGGGAGTAGGCAACCTGGCATTGAAACGAGAGAAAGAGAGTCAGAACCAGAAGACAAATAAAAAGTATGCAACAAACAAATCAAAATCAAAGGGCAAAGGCTGGGGTTGGCTCAATTGGTTGCTACATTCAATTTTCAACTCAGTCAACGGTTGAGATTCACTCTGACTTCCCCAATCTAAGCCGCGGATGCAAACGGTTGAATCTAACCCACAATCCAATCTCGTTACTTAGGGGCTTTTCCGTCATTAACTCACCCCTGCCACCCGGTTTCCCTATAAATTGGAACTCAATGCTCCCCTCTAAACTCGTATCGCTTCAGAGTTGAGACCAAGACACACTCGTTCATATATCTCTCTGCTCTTCTCTTCTCTTCTACCTCTCAAGGTACTTTTCTTCTCCCTCTACCAAATCCTAGATTCCGTGGTTCAATTTCGGATCTTGCACTTCTGGTTTGCTTTGCCTTGCTTTTTCCTCAACTGGGTCCATCTAGGATCCATGTGAAACTCTACTCTTTCTTTAATATCTGCGGAATACGCGTTGGACTTTCAGATCTAGTCGAAATCATTTCATAATTGCCTTTCTTTCTTTTAGCTTATGAGAAATAAAATCATTTTTTTTTATTTCAAAATAAACCTTGGGCCTTGTGCTGACTGAGATGGGGTTTGGTGATTACAGAATTTTAGCGAATTTTGTAATTGTACTTGTTTGTCTGTAGTTTTGTTTTGTTTTCTTGTTTCTCATACATTCCTTAGGCTTCAATTTTATTCGAGTATAGGTCACAATAGGAATTCAAACTTTGAGCAGGGGAATTAATCCCTTCCTTCAAATCCAGTTTGTTTGTATATATGTTTAAAAAATGAAACTTTTGCTTTAAATTCTATTATAACTTTTTTTATGGCAAAAATTTTTGCATGTGTCTTTGCTCTCCTGTTGTAAATTTACTGTTTAGGTACTAACTCTAGGCTTGTTGTGCAGTTTTTGAAGTATAACCATGG
modifications: Glycine max
GUS specific activities [1]: 5-40 pmole 4-Mu (4-methylumbelliferone) per microgram protein per minute
